Experiment: Encapsulation of coumarin-6 in PEC nanoparticles by solvent displacement
Assay type: physicochemical
Conditions: solvent displacement method
Description: Coumarin-6 is used (absorption: 485 nm, emission: 505-525 nm) as it allows to optically detect a potential phagocytosis process and furthermore, is a suitable model for a lipophilic agent. Due to its lipophilic characteristics and low water solubility, coumarin-6 can suitably be processed by the solvent displacement method, in order to achieve a high packaging rate. The encapsulation efficiency is very high and lies close to 100%. The preparation of the loaded nanoparticles is also performed using the modified solvent-displacement method as described in example 2. Coumarin-6 is used in a stock solution of 50 μg/ml in acetonitrile (the stock solution is stored in the refrigerator and protected by light e.g. by using aluminium foil) and the PEC 95 and 99 polymers as a 10 mg/ml stock solution in acetonitrile. All samples are set up in triplicate. For loading the nanoparticles the required amounts of PEC stock solution and coumarin-6 stock solution are mixed, filled up with acetonitrile up to 1.5 ml and vortexed (see table 2). This solution is then injected into the PVA solution according to the usual schema (see above).

Encapsulation efficiency: ~100%
SMILES: CCN(CC)c1ccc2cc(-c3nc4ccccc4s3)c(=O)oc2c1 [coumarin-6]

— patent publication US20110250243A1, “NANOPARTICLE COMPOSITIONS” (priority 2008, published 2011)
